Common to all, as to assay type: biochemical
One assay has as its target T1, FUT2 (Homo sapiens, UniProt Q10981).
T1 construct: purchased Bio-Techne (Minneapolis, MN)
T1 sequence (Q10981 1-343): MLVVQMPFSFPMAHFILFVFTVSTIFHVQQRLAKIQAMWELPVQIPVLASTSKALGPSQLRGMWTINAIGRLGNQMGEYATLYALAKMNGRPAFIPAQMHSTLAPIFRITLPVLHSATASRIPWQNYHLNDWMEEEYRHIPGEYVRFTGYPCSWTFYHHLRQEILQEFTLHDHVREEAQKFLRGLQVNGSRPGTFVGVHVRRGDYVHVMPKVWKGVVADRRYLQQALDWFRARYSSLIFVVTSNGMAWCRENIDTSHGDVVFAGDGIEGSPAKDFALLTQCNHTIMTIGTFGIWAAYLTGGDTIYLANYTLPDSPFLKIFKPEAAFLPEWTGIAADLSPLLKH
Nature of the assay: Fluorescent labeling with fluorophore-conjugated fucose by FUT2. Also on record: key to Tolerance of the fluorophore by FUT2: +++: indicated by number of + signs; ++: indicated by number of + signs; indicated by number of + signs. The following applies: for Tolerance of the fluorophore by FUT2: fluorophore-conjugated fucose donor, acceptor terminal Gal of lactosamine, fluorescent intensity of labeled fetuin or asialofetuin in FIG. 9. How it is done:
(§1) FIG. 9A-FIG. 9B show exemplary results of probing substrate glycans of various fucosyltransferases on fetuin and asialofetuin. FIG. 9A. Probing substrate glycans of fucosyltransferases with guanosine 5′-diphosphate activated Cy5 conjugated fucose (GDP-Cy5-Fuc). […] FUT9 labeled itself (indicated by an arrow in the gel). FIG. 9B. Tolerance of Alexa-Fluor®555 (555), Alexa-Fluor®488 (488), and Cy5 by the indicated fucosyltransferases. All reactions were incubated at 37° C. for 30 minutes and then separated on SDS-PAGE and imaged with silver staining (upper panels) and fluorescent imager (lower panels). M, molecular marker.
(§2) For a typical labeling reaction, 1 μg to 5 μg target protein was mixed with 0.2 nmol GDP-f-Fuc and 0.2 μg of a fucosyltransferase in 30 μL buffer of 25 mM Tris pH 7.5, 10 mM MnCl2. The mixture was incubated at 37° C. for 30 minutes. The reaction was then separated by sodium dodecyl sulfate—polyacrylamide gel electrophoresis (SDS-PAGE) and the gel was directly imaged using a fluorescent imager FluorChem M ProteinSimple, Bio-Techne, Minneapolis, MN), followed by imaging with traditional protein imaging methods such as silver staining or trichloroethanol (TCE) staining.
(§3) The four enzymes tolerated the three fluorophores to different levels.

The target of another assay is T2, FUT6 (Homo sapiens, UniProt P51993).
T2 sequence (P51993 1-359): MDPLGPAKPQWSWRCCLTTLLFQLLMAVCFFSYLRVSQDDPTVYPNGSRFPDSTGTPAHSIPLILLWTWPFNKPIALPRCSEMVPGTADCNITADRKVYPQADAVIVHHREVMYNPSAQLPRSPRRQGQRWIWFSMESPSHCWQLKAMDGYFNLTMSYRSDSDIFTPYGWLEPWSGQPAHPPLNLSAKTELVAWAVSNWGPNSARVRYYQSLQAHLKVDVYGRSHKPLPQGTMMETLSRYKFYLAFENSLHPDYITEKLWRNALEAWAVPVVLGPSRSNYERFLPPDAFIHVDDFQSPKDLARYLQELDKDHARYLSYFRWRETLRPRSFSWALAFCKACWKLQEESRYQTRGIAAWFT
Nature of the assay: Fluorescent labeling with fluorophore-conjugated fucose by FUT6. Also noted: key: +++: indicated by number of + signs; ++: indicated by number of + signs; indicated by number of + signs. As to conditions: fluorophore-conjugated fucose donor; acceptor GlcNAc of lactosamine, sialylation on terminal Gal is flexible; FIG. 9. How it is done:
as §1, §2, §3

Another assay deals with T3, FUT7 (Homo sapiens, UniProt Q11130).
T3 sequence (Q11130 1-342): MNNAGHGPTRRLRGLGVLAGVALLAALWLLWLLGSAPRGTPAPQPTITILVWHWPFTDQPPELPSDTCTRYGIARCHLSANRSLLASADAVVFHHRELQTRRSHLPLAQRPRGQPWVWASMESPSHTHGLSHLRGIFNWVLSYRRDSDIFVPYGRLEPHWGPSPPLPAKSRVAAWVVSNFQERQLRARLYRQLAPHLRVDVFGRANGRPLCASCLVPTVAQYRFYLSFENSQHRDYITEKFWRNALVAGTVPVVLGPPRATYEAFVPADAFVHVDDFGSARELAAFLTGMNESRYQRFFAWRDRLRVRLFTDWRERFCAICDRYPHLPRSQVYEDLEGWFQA
Description: Fluorescent labeling with fluorophore-conjugated fucose by FUT7. Also on record: key to Tolerance of the fluorophore by FUT7: +++: indicated by number of + signs; ++: indicated by number of + signs; indicated by number of + signs. The following applies: for Tolerance of the fluorophore by FUT7: fluorophore-conjugated fucose donor, acceptor GlcNAc of sialylactosamine, FIG. 9. Here is the method:
as §1, §2, §3

[1] abbreviates: among Cy5-, AlexaFluor® 488-, and AlexaFluor® 555-conjugated fucoses, FIG. 9B.

Take “guanosine 5′-diphosphate activated Alexa-Fluor®488 conjugated fucose [GDP-AF488-Fuc]”: the “Tolerance of the fluorophore by FUT2” value on FUT2 is listed as “+”. Also, the “Tolerance of the fluorophore by FUT6” value at FUT6 is “++”. In addition, the “Fluorophore preference of FUT7” value at FUT7 (setting [1]) is on record as “preferred”. In addition, the “Tolerance of the fluorophore by FUT7” value on FUT7 was “++”.
With “guanosine 5′-diphosphate activated Alexa-Fluor®555 conjugated fucose [GDP-AF555-Fuc]”, the “Fluorophore preference of FUT2” value on FUT2 (setting [1]) is reported as “preferred”. For the same substance, on FUT2, the “Tolerance of the fluorophore by FUT2” value was “+++”. Also, the “Tolerance of the fluorophore by FUT6” value on FUT6 is reported as “++”. In addition, at FUT7, the “Tolerance of the fluorophore by FUT7” value was “+”.

These data come from patent US20240168030A1, “DIRECT FLUORESCENT GLYCAN LABELING” (BIO-TECHNE CORPORATION, priority 2019, published 2024).
